The values below come from patent publication EP0391644B1, “Aryl-substituted rhodanine derivatives” (ELI LILLY AND COMPANY, priority 1989, dated 1990).

Where “and” joins values, the source holds several entries; their conditions need not be identical. Equal values may be shown once.

Broadly, the % inhibition is the change of the read-out against control, counted positive when it falls.

Assay [1] concerns inflammation. The assay can be described thus: Carrageenin Assay. The class given is in vivo. As to conditions: Rattus norvegicus, po, carrageenin-injected hind paws of rats, read-out: Percent Inhibition; for inhibition in vivo at 50 mg/kg: 50 mg/kg orally by gavage. As to the method: The compounds were evaluated for antiinflammatory activity in the test method described by C.A. Winter, Proc. Soc. Exp. Biol. Med., 111, 544 (1962). In this test, inflammation is created by injecting carrageenin into the hind paws of rats. Test compounds are administered prior to injection to determine percent inhibition of the subsequent inflammation in comparison with control animals.

The subject of assay [2] is Collagen-Induced Arthritis. The assay can be described thus: Collagen-Induced Arthritis Assay. Type of assay: in vivo, inbred Lewis male rats. As to conditions: 5 days per week, hindpaw volume. As to the method: Type II collagen was isolated from bovine articular cartilage by the method of Strawich and Nimni [Biochemistry, 10, 3905 (1971)]. The collagen was dissolved in 0.1 M acetic acid and stored at -20°C. Type II collagen solution was diluted to 2 mg/ml concentration and emulsified thoroughly with an equal volume of incomplete Freund's adjuvant (ICFA). The emulsion containing approximately 0.5 mg of collagen was injected intradermally on day 0 to groups of 6 inbred Lewis male rats (Charles River Breeders; 170-200 g) at various sites in the dorsal area. The hindpaw volumes of each rat were measured and recorded three times a week throughout the test period to assess the inflammatory reaction. The test group animals received compounds under test as suspensions in carboxymethylcellulose vehicle, by oral gavage, 5 days per week (Monday-Friday), beginning on day 1. Control animals received vehicle without a test compound. At the end of the test (day 28 or 30), the blood of these animals was drawn by cardiac puncture and the serum anti-type II collagen antibody levels were estimated by passive hemaglutination technique, using glutaraldehyde treated sheep red cells, to which type II collagen is conjugated [Avrameas et al., Immunochemistry, 6, 67 (1969); Andriopoulos et al., Arth. Rheum., 19, 613 (1976)]. The cellular response or delayed-type hypersensitivity response to type II collagen was measured by the radiometric ear index assay [Kostiala, Immunology, 33, 561 (1977)]. In certain experiments, the bone damage occurring because of immunization with type II collagen and the effects of drugs were determined from the radiographs of the hind-paws of two or three representative animals from each group. Injections of ICFA without collagen II were employed in some rats as a negative control; these rats received only carboxymethycellulose vehicle during the test.
The % inhibition was calculated according to the following formula: % inhibition = [1-(Vt - Vv)/(Vc - Vv)] X 100 [formula] where Vt is the hindpaw volume of a compound-treated animal (test group), Vc is the hindpaw volume of a non-compound-treated animal (carboxymethylcellulose vehicle only-the control group), and Vv is the hindpaw volume of a vehicle (carboxymethylcellulose) treated animal which received ICFA with no collagen II (negative control group).

The subject of assay [3] is adjuvant-induced arthritis. Briefly: Developing Adjuvant-Induced Arthritis Test in Rats. Type of assay: in vivo, male Lewis-Wistar rats. As to conditions: Rattus norvegicus, po, 720 h, AUC of uninjected paw volumes, Days 16 through 30, read-out: % Inhibition of Uninjected Paw Volume Inflammation; for inhibition in vivo at 50 mg/kg: 50 mg/kg P.O. x 29.
The subject of assay [4] is Dystrophic mice (dy/dy). Briefly: Muscular Dystrophy Animal Model. Type of assay: in vivo. As to the method: Dystrophic mice (dy/dy) were obtained from Jackson Laboratories after weaning (approximately 21 days) and treatment with the compounds shown in Table V was begun at the first sign of dystrophy. The compounds that were tested were administered in the diet and lifespan was measured during the course of treatment. The food and water sources were located in different parts of the cage requiring the animals to walk from the food source to the water source to survive.

In assay [5] the test system is ischemia-induced brain damage in the hippocampal CA1 region. The assay can be described thus: Stroke model in rats. Type of assay: in vivo, Male Wistar rats. As to conditions: mean ± standard error, scale 0 = no damage to 3 = severe damage of CA1 layer. An excerpt:
Strokes were produced in rats by occluding the four arteries that supply blood to the brain according to the following procedure. Male Wistar rats were anesthetized with Metofane and placed into a stereotaxic instrument. A longitudinal incision was made on the dorsal surface of the neck. The neck muscles were reflected to expose the dorsal surface of the spinal column. The two vertebral arteries were exposed where they pass through the first cervical vertebra. Both arteries were permanently occluded by the application of electrocautery. After coagulation of the vertebral arteries, the rat was removed from the stereotaxic instrument and the surgical wound was sutured. Two longitudinal incisions were then made on the ventral surface of the neck. The two common carotid arteries were exposed and dissected free from surrounding nerves and connective tissue. An atraumatic clasp, fabricated mainly from silicon rubber tubing, was placed around each carotid artery in a manner such that the vessel was not traumatized or occluded. The surgical wounds were then closed. The atraumatic clasps were designed in such a manner that they could be tightened to occlude the carotid arteries by pulling on a small silastic thread that was allowed to protrude from the wound. Circulation to the brain through the carotids could be restored by relieving the tension on the silastic threads. After the surgery, the rats were allowed to recover for 24 hours.
On the day of testing, compounds were suspended in 2% acacia and were administered orally at various times before stroke induction. Strokes (cerebral ischemia) were induced by tightening the clasps around the carotids for a period of 30 minutes. During this time, rats in which strokes had successfully been produced lost the righting reflex and became unresponsive to stimuli. After 30 minutes of ischemia, tension on the clasps was removed and blood flow to the brain restored. Rats were again treated with compounds on the morning after the stroke. On the third day after the stroke the animals received an overdose of barbituate anesthetic, and the brain was perfused in situ with 10% neutral, buffered formalin. After perfusion with amounts of formalin adequate to fix the brain, the brains were removed and stored in 10% formalin until histological sections could be prepared.
One of the areas of the brain that is most susceptible to ischemia induced damage both in the rat and the human is the CA1 pyramidal cell layer of the hippocampus. In animals that remain unresponsive for the 30 minute period of ischemia, the CA1 pyramidal cell layer is completely destroyed. This layer of cells was examined microscopically in histological sections prepared from the hippocampus. Brain damage was rated according to the following scale: 0 = no damage, completely intact cell layer 1 = mild damage, one-third of CA1 layer dead 2 = moderate damage, two-thirds of CA1 layer dead 3 = severe damage, complete destruction of CA1 layer
Damage in 10-12 sections from each brain was assessed in order to obtain an accurate estimate of damage. An average damage score was calculated for each treatment group. Scores from treated groups were compared statistically with scores from control groups which received only the vehicle (2% acacia) that was used to suspend the compounds. The level of significance was determined using Student's "t-test".

Setting [6] is: 0.03 percent by weight of compound in diet.
[7] abbreviates: 0.08 percent by weight of compound in diet.
The mark [8] stands for this setting: 0.3 percent by weight of compound in diet.
The mark [9] stands for this setting: 100 mg/kg given orally as a suspension in 2% acacia.

As for `CC(C)(C)c1cc(C=C2SC(=S)NC2=O)cc(C(C)(C)C)c1O` [Example 1, 5-{[3,5-bis(1,1-dimethylethyl)-4-hydroxyphenyl]-methylene}-2-thioxo-4-thiazolidinone], the inhibition in vivo at 30 mg/kg in assay [1] (30 mg/kg orally by gavage) is 67%. Besides, the “% inhibition” value in assay [2] (50 mg/kg by oral gavage) is 100% and 53%. The inhibition in vivo at 50 mg/kg in assay [3] came to 41%.
As for `CC(C)(C)c1cc(C=C2SCNC2=O)cc(C(C)(C)C)c1O` [Example 2, 5-{[3,5-bis(1,1-dimethylethyl)-4-hydroxyphenyl]methylene}-4-thiazolidinone], the inhibition in vivo at 50 mg/kg amounted to 46% in assay [1] and 81% in assay [3]. The “% inhibition” value is 91% and 50% in assay [2] (30 mg/kg by oral gavage); 100% in assay [2] (50 mg/kg by oral gavage). In addition, the “Average Life Span” value is 57 days in assay [4] (setting [6]); 116 days and 73 days in assay [4] (setting [7]); 108 days in assay [4] (0.1 percent by weight of compound in diet); 74 days in assay [4] (setting [8]).
Regarding `CC(C)(C)c1cc(CC2SCNC2=O)cc(C(C)(C)C)c1O` (stereo not shown) [Example 3, 5-{[3,5-bis(1,1-dimethylethyl)-4-hydroxyphenyl]methyl}-4-thiazolidinone], the inhibition in vivo at 50 mg/kg in assay [1] turned out to be 12%; in assay [3], 10%. Further, in assay [2] (50 mg/kg by oral gavage), the “% inhibition” value was determined as 79%.
Consider `COC(=O)N1CSC(=Cc2cc(C(C)(C)C)c(O)c(C(C)(C)C)c2)C1=O` [Example 4, 5-{[3,5-bis(1,1-dimethylethyl)-4-hydroxyphenyl]methylene}-4-oxo-3-thiazolidinecarboxylic acid, methyl ester], for which the inhibition in vivo at 50 mg/kg in assay [1] is 65%; in assay [3], 23%. Besides, in assay [2] (50 mg/kg by oral gavage), the “% inhibition” value stood at 5%.
On to `CN1CSC(=Cc2cc(C(C)(C)C)c(O)c(C(C)(C)C)c2)C1=O` [Example 10, 5-{[3,5-bis(1,1-dimethylethyl)-4-hydroxyphenyl]methylene}-3-methyl-4-thiazolidinone], for which, in assay [3], the inhibition in vivo at 50 mg/kg came to 57%. In addition, the “Damage Score” value in assay [5] (setting [9]) is recorded as 0.75 ± 0.26 (p<0.02). The “Average Life Span” value in assay [4] (setting [6]) is 93 days and 112 days and 90 days and 80 days and 110 days; in assay [4] (setting [7]), 45 days and 67 days; in assay [4] (setting [8]) it was 83 days.
For `CCN1CSC(=Cc2cc(C(C)(C)C)c(O)c(C(C)(C)C)c2)C1=O` [Example 14, 5-{[3,5-Bis(1,1-dimethylethyl)-4-hydroxyphenyl]methylene}-3-ethyl-4-thiazolidinone], the inhibition in vivo at 50 mg/kg in assay [1] turned out to be 43%; in assay [3] it was 6%.
Turning to `CCCN1CSC(=Cc2cc(C(C)(C)C)c(O)c(C(C)(C)C)c2)C1=O` [Example 15, 5-{[3,5-bis(1,1-dimethylethyl)-4-hydroxyphenyl]methylene}-3-propyl-4-thiazolidinone], the inhibition in vivo at 50 mg/kg amounted to 42% in assay [1] and 40% in assay [3].
On to `CCCCN1CSC(=Cc2cc(C(C)(C)C)c(O)c(C(C)(C)C)c2)C1=O` [Example 16, 5-{[3,5-bis(1,1-dimethylethyl)-4-hydroxyphenyl]methylene}-3-butyl-4-thiazolidinone], for which the inhibition in vivo at 50 mg/kg in assay [1] was determined as 40%; in assay [3], 18%.
As for `CC(C)(C)c1cc(C=C2SCOC2=O)cc(C(C)(C)C)c1O` [Example 17, 4-{[3,5-bis(1,1-dimethylethyl)-4-hydroxyphenyl]methylene}-1,3-oxothiolan-5-one], the inhibition in vivo at 50 mg/kg in assay [1] was 18%; in assay [3], 61%. Also, the “Average Life Span” value in assay [4] (setting [6]) amounted to 112 days.
Turning to `CC(C)(C)c1cc(C=C2SC(=S)N(C3CC3)C2=O)cc(C(C)(C)C)c1O` [Example 18, 5-{[3,5-bis(1,1-dimethylethyl)-4-hydroxyphenyl]methylene}-3-cyclopropyl-2-thioxo-4-thiazolidinone], the inhibition in vivo at 50 mg/kg in assay [1] came to 22%.
For `CN(C)N1CSC(=Cc2cc(C(C)(C)C)c(O)c(C(C)(C)C)c2)C1=O` [Example 21, 5-{[3,5-bis(1,1-dimethylethyl)-4-hydroxyphenyl]methylene}-3-dimethylamino-4-thiazolidinone], the inhibition in vivo at 50 mg/kg in assay [3] was found to be 81%. Further, in assay [5] (50 mg/kg given orally as a suspension in 2% acacia), the “Damage Score” value is 1.9 ± 0.3. Further, in assay [4] (setting [6]), the “Average Life Span” value is 151 days.
Take `CC(C)(C)c1cc(C=C2SCN(CCO)C2=O)cc(C(C)(C)C)c1O` [Example 35, 5-{[3,5-bis(1,1-dimethylethyl)-4-hydroxyphenyl]methylene}-3-(2-hydroxyethyl)-4-thiazolidinone]: the inhibition in vivo at 75 mg/kg in assay [3] (75 mg/kg P.O. x 29) is 86%. Moreover, in assay [5] (setting [9]), the “Damage Score” value is 0.9 ± 0.4 (p<0.001). Also, the “Average Life Span” value in assay [4] (0.05 percent by weight of compound in diet) came out at 107 days.
For `Cc1cc(C=C2SCN(N(C)C)C2=O)cc(C(C)(C)C)c1O` [Example 62, 5-{[3-(1,1-dimethylethyl)-4-hydroxy-5-methylphenyl]methylene}-3-dimethylamino-4-thiazolidinone], in assay [3], the inhibition in vivo at 50 mg/kg is 11.2%. Besides, in assay [5] (setting [9]), the “Damage Score” value is listed as 1.2 ± 0.3 (p<0.05).
